Laboratory results: US4051237A, “Glycopeptide antibiotics Bu-2231 A and B and process for producing same” (priority 1975, dated 1977)
Converted amounts (≈) assume the structure as drawn.

Assays:
Format in all cases: cell-based
E. coli Juhl A15119 = assay: MIC by two-fold agar dilution; conditions: Mueller-Hinton agar, unit assumed
E. coli A20683 = assay: MIC by two-fold agar dilution; conditions: Mueller-Hinton agar, unit assumed
E. coli A20732 = assay: MIC by two-fold agar dilution; conditions: Mueller-Hinton agar, unit assumed
E. cloacae A21006 = assay: MIC by two-fold agar dilution; conditions: Mueller-Hinton agar, unit assumed
P. vulgaris A9436 = assay: MIC by two-fold agar dilution; conditions: Mueller-Hinton agar, unit assumed
P morganii A9553 = assay: MIC by two-fold agar dilution; conditions: Mueller-Hinton agar, unit assumed
P. rettgeri A15167 = assay: MIC by two-fold agar dilution; conditions: Mueller-Hinton agar, unit assumed
S. marcescens A20019 = assay: MIC by two-fold agar dilution; conditions: Mueller-Hinton agar, unit assumed
S. marcescens A20460 = assay: MIC by two-fold agar dilution; conditions: Mueller-Hinton agar, unit assumed
S. marcescens A20333 = assay: MIC by two-fold agar dilution; conditions: Mueller-Hinton agar, unit assumed
S. marcescens A21235 = assay: MIC by two-fold agar dilution; conditions: Mueller-Hinton agar, unit assumed
P. aeruginosa A 9923 = assay: MIC by two-fold agar dilution; conditions: Mueller-Hinton agar, unit assumed
P. aeruginosa A9930 = assay: MIC by two-fold agar dilution; conditions: Mueller-Hinton agar, unit assumed
P. aeruginosa H9, D113 = assay: MIC by two-fold agar dilution; conditions: Mueller-Hinton agar, unit assumed
P. aeruginosa A20741 = assay: MIC by two-fold agar dilution; conditions: Mueller-Hinton agar, unit assumed
S. aureus 209P = assay: MIC by two-fold agar dilution; conditions: Mueller-Hinton agar, unit assumed
S. aureus Smith A9537 = assay: MIC by two-fold agar dilution; conditions: Mueller-Hinton agar, unit assumed
S. aureus #193 = assay: MIC by two-fold agar dilution; conditions: Mueller-Hinton agar, unit assumed
S. aureus 209P, R4 = assay: MIC by two-fold agar dilution; conditions: Mueller-Hinton agar, unit assumed
Method: The minimum inhibitory concentrations (MIC) of Bu-2231 A and B were determined against a wide variety of bacteria and fungi by the two-fold agar dilution method. Mueller-Hinton agar medium was used for the determination of bacterial MIC's (gram-positive and gram-negative), Medium #1001 [Glycerol (3%). Na-glutamate (0.3%), peptone (0.2%), Na2 HPO4 (0.31%), KH2 PO4 (0.1%), ammonium citrate (0.005%), MgSO4.7H2 O (0.001%), agar (1.5%)] for acid-fast bacteria and sabouraud agar for fungi. The results are shown in Tables 9 and 10 comparatively with bleomycin and phleomycin. The antibacterial and antifungal activities of Bu-2231 A and B are much higher than those of the reference antibiotics.

S. aureus A20239 = assay: MIC by two-fold agar dilution; conditions: Mueller-Hinton agar, unit assumed
S. aureus BX-1633,A9606 = assay: MIC by two-fold agar dilution; conditions: Mueller-Hinton agar, unit assumed
S. lutea PCI-1001 = assay: MIC by two-fold agar dilution; conditions: Mueller-Hinton agar, unit assumed
B. sphaericus #122 = assay: MIC by two-fold agar dilution; conditions: Mueller-Hinton agar, unit assumed
B. cereus ATCC 10702A = assay: MIC by two-fold agar dilution; conditions: Mueller-Hinton agar, unit assumed
B. anthracis 115 = conditions: Mueller-Hinton agar, unit assumed
Mycobacterium 607, D47 = assay: MIC by two-fold agar dilution; conditions: Medium #1001, unit assumed
Mycobacterium phlei, D88 = assay: MIC by two-fold agar dilution; conditions: Medium #1001, unit assumed
[1] = tested on: Mycobacterium ranae, ATCC110; assay: MIC by two-fold agar dilution; conditions: Medium #1001, unit assumed
C. albicans IAM 4888 = assay: MIC by two-fold agar dilution; conditions: Ca-1 C. albicans IAM 4888; sabouraud agar; unit assumed
C. albicans Nystatin-R = assay: MIC by two-fold agar dilution; conditions: Ca-2 C. albicans Nystatin-R; sabouraud agar; unit assumed
C. tropicalis IAM 4157 = assay: MIC by two-fold agar dilution; conditions: Ct-1 C. tropicalis IAM 4157; sabouraud agar; unit assumed
S. cerevisiae IAM 4009 = assay: MIC by two-fold agar dilution; conditions: Sc-2 S. cerevisiae IAM 4009; sabouraud agar; unit assumed
A. niger var Tieghem = assay: MIC by two-fold agar dilution; conditions: An-1 A. niger var Tieghem; sabouraud agar; unit assumed
A. fumigatus IAM 2530 = assay: MIC by two-fold agar dilution; conditions: Af-1 A. fumigatus IAM 2530; sabouraud agar; unit assumed
Sporotrichum sp. = assay: MIC by two-fold agar dilution; conditions: Sy-1 Sporotrichum sp.; sabouraud agar; unit assumed
Verticillium sp. = assay: MIC by two-fold agar dilution; conditions: Vx-1 Verticillium sp.; sabouraud agar; unit assumed
[2] = tested on: F. moniliforme NRRL A2284; assay: MIC by two-fold agar dilution; conditions: Fm-1 F. moniliforme NRRL A2284; sabouraud agar; unit assumed
C. lunata ATCC 13432 = assay: MIC by two-fold agar dilution; conditions: Cl-1 C. lunata ATCC 13432; sabouraud agar; unit assumed
P. citrinum IAM 7008 = assay: MIC by two-fold agar dilution; conditions: Pt-1 P. citrinum IAM 7008; sabouraud agar; unit assumed
T. mentagrophytes D-155 = assay: MIC by two-fold agar dilution; conditions: Tm-1 T. mentagrophytes D-155; sabouraud agar; unit assumed
T. rubrum D-55 = assay: MIC by two-fold agar dilution; conditions: Tr-1 T. rubrum D-55; sabouraud agar; unit assumed
M. canis D-51 = assay: MIC by two-fold agar dilution; conditions: Mc-1 M. canis D-51; sabouraud agar; unit assumed

Phleomycin [reference compound]
MIC (E. coli Juhl A15119): 1.6 µg/mL | MIC (E. coli A20683): > 100 µg/mL | MIC (E. coli A20732): 1.6 µg/mL | MIC (E. cloacae A21006): 50 µg/mL | MIC (P. vulgaris A9436): 0.8 µg/mL | MIC (P morganii A9553): 6.3 µg/mL | MIC (P. rettgeri A15167): 3.1 µg/mL | MIC (S. marcescens A20019): 0.8 µg/mL | MIC (S. marcescens A20460): 0.8 µg/mL | MIC (S. marcescens A20333): 0.8 µg/mL | MIC (S. marcescens A21235): 0.8 µg/mL | MIC (P. aeruginosa A 9923): > 100 µg/mL | MIC (P. aeruginosa A9930): 3.1 µg/mL | MIC (P. aeruginosa H9, D113): > 100 µg/mL | MIC (P. aeruginosa A20741): 6.3 µg/mL | MIC (S. aureus 209P): 0.2 µg/mL | MIC (S. aureus Smith A9537): 0.1 µg/mL | MIC (S. aureus #193): 0.2 µg/mL | MIC (S. aureus 209P, R4): 0.4 µg/mL | MIC (S. aureus A20239): 0.4 µg/mL | MIC (S. aureus BX-1633,A9606): 0.4 µg/mL | MIC (S. lutea PCI-1001): 0.4 µg/mL | MIC (B. sphaericus #122): 0.4 µg/mL | MIC (B. cereus ATCC 10702A): 0.2 µg/mL | MIC (B. anthracis 115): 0.4 µg/mL | MIC (Mycobacterium 607, D47): 0.2 µg/mL | MIC (Mycobacterium phlei, D88): 0.1 µg/mL | MIC [1]: 0.4 µg/mL | MIC (C. albicans IAM 4888): 3.1 µg/mL | MIC (C. albicans Nystatin-R): 1.6 µg/mL | MIC (C. tropicalis IAM 4157): 3.1 µg/mL | MIC (S. cerevisiae IAM 4009): 0.8 µg/mL | MIC (A. niger var Tieghem): 0.4 µg/mL | MIC (A. fumigatus IAM 2530): 0.8 µg/mL | MIC (Sporotrichum sp.): 12.5 µg/mL | MIC (Verticillium sp.): 6.3 µg/mL | MIC [2]: 12.5 µg/mL | MIC (C. lunata ATCC 13432): 0.4 µg/mL | MIC (P. citrinum IAM 7008): 3.1 µg/mL | MIC (T. mentagrophytes D-155): 12.5 µg/mL | MIC (T. rubrum D-55): 3.1 µg/mL | MIC (M. canis D-51): 6.3 µg/mL

Cc1c(N)nc([C@H](CC(N)=O)NC[C@@H](N)C(N)=O)nc1C(=O)N[C@H](C(=O)N[C@H](C)[C@@H](O)CC(=O)N[C@@H](C(=O)NC(O[C@@H]1O[C@@H](C)[C@@H](N)[C@@H](O)[C@H]1O)C(O)c1nc(-c2nc(C(=O)NCCCNCCCCN)cs2)cs1)[C@@H](C)O)C(O[C@@H]1O[C@@H](CO)[C@H](O)[C@@H](O)[C@@H]1O[C@H]1O[C@H](CO)[C@@H](O)[C@@H](OC(N)=O)[C@@H]1O)c1cnc[nH]1 (stereo partly drawn) [Bu-2231 B Cu-free]
MIC (E. coli Juhl A15119): 0.2 µg/mL (≈ 0.125 µM) | MIC (E. coli A20683): 12.5 µg/mL (≈ 7.79 µM) | MIC (E. coli A20732): 0.2 µg/mL (≈ 0.125 µM) | MIC (E. cloacae A21006): 6.3 µg/mL (≈ 3.93 µM) | MIC (P. vulgaris A9436): 0.2 µg/mL (≈ 0.125 µM) | MIC (P morganii A9553): 1.6 µg/mL (≈ 0.998 µM) | MIC (P. rettgeri A15167): 0.8 µg/mL (≈ 0.499 µM) | MIC (S. marcescens A20019): 0.8 µg/mL (≈ 0.499 µM) | MIC (S. marcescens A20460): 0.8 µg/mL (≈ 0.499 µM) | MIC (S. marcescens A20333): 0.8 µg/mL (≈ 0.499 µM) | MIC (S. marcescens A21235): 1.6 µg/mL (≈ 0.998 µM) | MIC (P. aeruginosa A 9923): > 100 µg/mL | MIC (P. aeruginosa A9930): 0.8 µg/mL (≈ 0.499 µM) | MIC (P. aeruginosa H9, D113): > 100 µg/mL | MIC (P. aeruginosa A20741): 0.2 µg/mL (≈ 0.125 µM) | MIC (S. aureus 209P): 0.4 µg/mL (≈ 0.249 µM) | MIC (S. aureus Smith A9537): 0.05 µg/mL (≈ 0.0312 µM) | MIC (S. aureus #193): 0.4 µg/mL (≈ 0.249 µM) | MIC (S. aureus 209P, R4): 0.8 µg/mL (≈ 0.499 µM) | MIC (S. aureus A20239): 0.8 µg/mL (≈ 0.499 µM) | MIC (S. aureus BX-1633,A9606): 0.8 µg/mL (≈ 0.499 µM) | MIC (S. lutea PCI-1001): 0.4 µg/mL (≈ 0.249 µM) | MIC (B. sphaericus #122): 0.2 µg/mL (≈ 0.125 µM) | MIC (B. cereus ATCC 10702A): 0.2 µg/mL (≈ 0.125 µM) | MIC (B. anthracis 115): 0.1 µg/mL (≈ 0.0624 µM) | MIC (Mycobacterium 607, D47): 0.05 µg/mL (≈ 0.0312 µM) | MIC (Mycobacterium phlei, D88): 0.05 µg/mL (≈ 0.0312 µM) | MIC [1]: 0.1 µg/mL (≈ 0.0624 µM) | MIC (C. albicans IAM 4888): 0.8 µg/mL (≈ 0.499 µM) | MIC (C. albicans Nystatin-R): 0.8 µg/mL (≈ 0.499 µM) | MIC (C. tropicalis IAM 4157): 0.8 µg/mL (≈ 0.499 µM) | MIC (S. cerevisiae IAM 4009): 0.2 µg/mL (≈ 0.125 µM) | MIC (A. niger var Tieghem): 0.2 µg/mL (≈ 0.125 µM) | MIC (A. fumigatus IAM 2530): 0.4 µg/mL (≈ 0.249 µM) | MIC (Sporotrichum sp.): 3.1 µg/mL (≈ 1.93 µM) | MIC (Verticillium sp.): 1.6 µg/mL (≈ 0.998 µM) | MIC [2]: 0.8 µg/mL (≈ 0.499 µM) | MIC (C. lunata ATCC 13432): 0.2 µg/mL (≈ 0.125 µM) | MIC (P. citrinum IAM 7008): 1.6 µg/mL (≈ 0.998 µM) | MIC (T. mentagrophytes D-155): 6.3 µg/mL (≈ 3.93 µM) | MIC (T. rubrum D-55): 0.8 µg/mL (≈ 0.499 µM) | MIC (M. canis D-51): 0.8 µg/mL (≈ 0.499 µM)
